Experimental data from patent publication US20260022142A1, “MACROCYCLIC IMMUNOMODULATORS” (Bristol-Myers Squibb Company, priority 2022, published 2026).
Bridge positions count the residues as written; N and C are the ends. Square brackets hold non-standard residues; d marks the D form. Peptide text beside a SMILES is read from it. * marks the point of attachment. ξ: configuration not given here. Phe(3-CF3) = N[C@@H](Cc1cccc(C(F)(F)F)c1)C(=O)O; Phe(4-COOH) = N[C@@H](Cc1ccc(C(=O)O)cc1)C(=O)O; Bip = N[C@@H](Cc1ccc(-c2ccccc2)cc1)C(=O)O; NH(CH2)14COOH = O=C(O)CCCCCCCCCCCCCCN*; Phe(3-Me) = Cc1cccc(C[C@H](N)C(=O)O)c1; His(τ-Me) = Cn1cnc(C[C@H](N)C(=O)O)c1; NH(CH2)12COOH = O=C(O)CCCCCCCCCCCCN*; Val(3-OH) = CC(C)(O)[C@H](N)C(=O)O; 4Pal = N[C@@H](Cc1ccncc1)C(=O)O; Cha = N[C@@H](CC1CCCCC1)C(=O)O; Cit = NC(=O)NCCC[C@H](N)C(=O)O; Ahp(2) = CCCCC[C@H](N)C(=O)O; PEG4 = NCCOCCOCCOCCOCCC(=O)O; dDab = NCC[C@@H](N)C(=O)O; Carboxymethyl = O=C(O)C*; Nle = CCCC[C@H](N)C(=O)O; Orn = NCCC[C@H](N)C(=O)O; Aun = NCCCCCCCCCCC(=O)O; Dab = NCC[C@H](N)C(=O)O; Dap = NC[C@H](N)C(=O)O; AEEA = NCCOCCOCC(=O)O; ξC = NC(CS)C(=O)O

What follows are compounds tested against T1, PD-1/PD-L1 interaction (PE-labeled human PD-L1-Ig binding to Jurkat cell line over-expressing human PD-1) (Homo sapiens, UniProt Q15116) (assay: Jurkat-PD-1 Cell Binding High-Content Screening Assay (CBA)). Conditions: Jurkat cell line over-expressing human PD-1; PE-labeled PD-L1-Ig 20 nM final; read-out: Jurkat hPD1-PDL1 IC50.
T1 construct: expressed in transfected cells; host or cells: Jurkat
Format: cell-based
Procedure, shortened: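 Binding of fluorescent PD-L1-Ig (phycoerythrin on Ig tag, 20 nM final, 1 h) measured by high-content imaging of fixed, Hoechst-counterstained Jurkat-hPD-1 cells. Compound added 2 h at 37° C beforehand, in DMEM with 10% fetal calf serum.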

T1 sequence (Q15116 25-288): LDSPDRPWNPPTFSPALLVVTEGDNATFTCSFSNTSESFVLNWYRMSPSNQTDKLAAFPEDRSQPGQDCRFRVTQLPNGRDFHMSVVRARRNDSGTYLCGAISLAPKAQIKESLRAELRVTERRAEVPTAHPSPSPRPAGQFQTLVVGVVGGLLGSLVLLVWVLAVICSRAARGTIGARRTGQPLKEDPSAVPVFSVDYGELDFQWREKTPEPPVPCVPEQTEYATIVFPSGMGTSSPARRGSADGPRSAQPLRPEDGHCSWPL

Row | IC50 [nM] | SMILES
1 | 13.3 | CCCC[C@@H]1NC(=O)CSC[C@@H](C(=O)N[C@@H](CCN)C(=O)NCCOCCOCC(=O)NCCOCCOCC(=O)NCCCCCCCCCCCCC(=O)O)NC(=O)[C@H](CO)NC(=O)[C@H](C(C)(C)O)NC(=O)[C@H](CC2CCCCC2)NC(=O)[C@H](CCN)NC(=O)[C@@H](CC(C)C)NC(=O)[C@H](CCCN)NC(=O)[C@H](Cc2ccc(OCC(=O)O)cc2)NC(=O)[C@H](Cc2ccc(-c3ccccc3)cc2)NC(=O)[C@H](Cc2ccc(OCC(=O)O)cc2)NC(=O)[C@H](Cc2cccc(C)c2)NC(=O)[C@H](CC(=O)O)NC(=O)[C@H](Cc2ccc(OCC(=O)O)cc2)NC1=O [Compound 3812] ({CH2CO}-[Nle]Y(Carboxymethyl)D[Phe(3-Me)]Y(Carboxymethyl)[Bip]Y(Carboxymethyl)[Orn][dL][Dab][Cha][Val(3-OH)]SC[Dab][AEEA][AEEA]-{NH(CH2)12COOH}; thioether N-14)
2 | 28.3 | CC(C)C[C@@H]1NC(=O)CSC[C@@H](C(=O)N[C@@H](CCN)C(=O)NCCCCCCCCCCCCC(=O)O)NC(=O)[C@H](CO)NC(=O)[C@H](C(C)(C)O)NC(=O)[C@H](CC2CCCCC2)NC(=O)[C@H](CCN)NC(=O)[C@@H](CC(C)C)NC(=O)[C@H](CCCN)NC(=O)[C@H](Cc2ccc(OCC(=O)O)cc2)NC(=O)[C@H](Cc2ccc(-c3ccccc3)cc2)NC(=O)[C@H](Cc2ccc(OCC(=O)O)cc2)NC(=O)[C@H](Cc2cccc(C(F)(F)F)c2)NC(=O)[C@H](CC(=O)O)NC(=O)[C@H](Cc2ccc(OCC(=O)O)cc2)NC1=O [Compound 3835] ({CH2CO}-LY(Carboxymethyl)D[Phe(3-CF3)]Y(Carboxymethyl)[Bip]Y(Carboxymethyl)[Orn][dL][Dab][Cha][Val(3-OH)]SC[Dab]-{NH(CH2)12COOH}; thioether N-14)
3 | 47.5 | CCCCC[C@@H]1NC(=O)[C@H](CCN)NC(=O)[C@@H](CC(C)C)NC(=O)[C@H](CCCN)NC(=O)[C@H](Cc2ccc(OCC(=O)O)cc2)NC(=O)[C@H](Cc2ccc(-c3ccccc3)cc2)NC(=O)[C@H](Cc2ccc(C(=O)O)cc2)NC(=O)[C@H](Cc2cccc(C)c2)NC(=O)[C@H](CC(=O)O)NC(=O)[C@H](Cc2ccc(OCC(=O)O)cc2)NC(=O)[C@H](CN)NC(=O)CSC[C@@H](C(=O)N[C@@H](CCN)C(=O)NCCOCCOCC(=O)NCCCCCCCCCCC(=O)O)NC(=O)[C@H](CCC(=O)O)NC(=O)[C@H](C(C)C)NC1=O [Compound 1275] ({CH2CO}-[Dap]Y(Carboxymethyl)D[Phe(3-Me)][Phe(4-COOH)][Bip]Y(Carboxymethyl)[Orn][dL][Dab][Ahp(2)]VEC[Dab][AEEA][Aun]-OH; thioether N-14)
4 | 11.5 | Cc1cccc(C[C@@H]2NC(=O)[C@H](CC(=O)O)NC(=O)[C@H](Cc3ccc(OCC(=O)O)cc3)NC(=O)[C@H](CN)NC(=O)CSC[C@@H](C(=O)NCCOCCOCC(=O)N[C@@H](CCN)C(=O)NCCCCCCCCCCC(=O)O)NC(=O)[C@H](CCCN)NC(=O)[C@H](C(C)C)NC(=O)[C@H](CC3CCCCC3)NC(=O)[C@H](CCN)NC(=O)[C@@H](CC(C)C)NC(=O)[C@H](CCCN)NC(=O)[C@H](CCC(=O)O)NC(=O)[C@H](Cc3ccc(-c4ccccc4)cc3)NC(=O)[C@H](C(C)C)NC2=O)c1 [Compound 2659] ({CH2CO}-[Dap]Y(Carboxymethyl)D[Phe(3-Me)]V[Bip]E[Orn][dL][Dab][Cha]V[Orn]C[AEEA][Dab][Aun]-OH; thioether N-14)
5 | 14.4 | Cc1cccc(C[C@@H]2NC(=O)[C@H](CC(=O)O)NC(=O)[C@H](Cc3ccc(OCC(=O)O)cc3)NC(=O)[C@H](Cc3cn(C)cn3)NC(=O)CSC[C@@H](C(=O)N[C@@H](CCN)C(=O)NCCCCCCCCCCC(=O)O)NC(=O)[C@H]([C@@H](C)O)NC(=O)[C@H](C(C)C)NC(=O)[C@H](CC3CCCCC3)NC(=O)[C@H](CCN)NC(=O)[C@@H](CC(C)C)NC(=O)[C@H](CCCN)NC(=O)[C@H](CCCNC(N)=O)NC(=O)[C@H](Cc3ccc(-c4ccccc4)cc3)NC(=O)[C@H](C(C)C)NC2=O)c1 [Compound 2036] ({CH2CO}-[His(τ-Me)]Y(Carboxymethyl)D[Phe(3-Me)]V[Bip][Cit][Orn][dL][Dab][Cha]VTC[Dab][Aun]-OH; thioether N-14)
6 | 15.7 | Cc1cccc(C[C@@H]2NC(=O)[C@H](CC(=O)O)NC(=O)[C@H](Cc3ccc(C(=O)O)cc3)NC(=O)[C@H](CC(C)C)NC(=O)CSC[C@@H](C(=O)N[C@@H](CCN)C(=O)NCCOCCOCCOCCOCCC(=O)NCCCCCCCCCCCCCCC(=O)O)NC(=O)[C@H](CCC(=O)O)NC(=O)[C@H](C(C)C)NC(=O)[C@H](CC3CCCCC3)NC(=O)[C@H](CCN)NC(=O)[C@@H](CC(C)C)NC(=O)[C@H](CCCN)NC(=O)[C@H](Cc3ccc(C(=O)O)cc3)NC(=O)[C@H](Cc3ccc(-c4ccccc4)cc3)NC(=O)[C@H](Cc3ccc(C(=O)O)cc3)NC2=O)c1 [Compound 3909] ({CH2CO}-L[Phe(4-COOH)]D[Phe(3-Me)][Phe(4-COOH)][Bip][Phe(4-COOH)][Orn][dL][Dab][Cha]VEC[Dab][PEG4]-{NH(CH2)14COOH}; thioether N-14)
7 | 12.6 | Cc1cccc(C[C@@H]2NC(=O)[C@H](CC(=O)O)NC(=O)[C@H](Cc3ccc(C(=O)O)cc3)NC(=O)[C@H](Cc3ccncc3)NC(=O)CSC[C@@H](C(=O)N[C@@H](CCN)C(=O)NCCCCCCCCCCC(=O)O)NC(=O)[C@H]([C@@H](C)O)NC(=O)[C@H](C(C)C)NC(=O)[C@H](CC(C)C)NC(=O)[C@H](CCN)NC(=O)[C@@H](CC(C)C)NC(=O)[C@H](CCCN)NC(=O)[C@H](Cc3ccc(OCC(=O)O)cc3)NC(=O)[C@H](Cc3ccc(-c4ccccc4)cc3)NC(=O)[C@H](Cc3ccc(OCC(=O)O)cc3)NC2=O)c1 [Compound 2143] ({CH2CO}-[4Pal][Phe(4-COOH)]D[Phe(3-Me)]Y(Carboxymethyl)[Bip]Y(Carboxymethyl)[Orn][dL][Dab]LVTC[Dab][Aun]-OH; thioether N-14)
8 | 30.7 | CC(C)C[C@H]1NC(=O)[C@H](CCCN)NC(=O)[C@H](C(C)C)NC(=O)[C@H](Cc2ccc(-c3ccccc3)cc2)NC(=O)[C@H](C(C)C)NC(=O)[C@H](Cc2c[nH]c3ccccc23)NC(=O)[C@H](CC(=O)O)NC(=O)[C@H](Cc2ccc(OCC(=O)O)cc2)NC(=O)[C@H](CN)NC(=O)CSCC(C(=O)N[C@H](CCN)C(=O)NCCCCCCCCCCC(=O)O)NC(=O)[C@H]([C@@H](C)O)NC(=O)[C@H](C(C)C)NC(=O)[C@H](CC2CCCCC2)NC(=O)[C@H](Cc2cnc[nH]2)NC1=O (stereo partly drawn) [Compound 1118] ({CH2CO}-[Dap]Y(Carboxymethyl)DWV[Bip]V[Orn][dL]H[Cha]VT[ξC][dDab][Aun]-OH; thioether N-14)
9 | 19.5 | CCCC[C@@H]1NC(=O)CSC[C@@H](C(=O)N[C@@H](CCN)C(=O)NCCOCCOCC(=O)NCCOCCOCC(=O)NCCCCCCCCCCCCC(=O)O)NC(=O)[C@H](CC(=O)O)NC(=O)[C@H](C(C)(C)O)NC(=O)[C@H](CC2CCCCC2)NC(=O)[C@H](CCN)NC(=O)[C@@H](CC(C)C)NC(=O)[C@H](CCCN)NC(=O)[C@H](Cc2ccc(C(=O)O)cc2)NC(=O)[C@H](Cc2ccc(-c3ccccc3)cc2)NC(=O)[C@H](Cc2ccc(C(=O)O)cc2)NC(=O)[C@H](Cc2cccc(C)c2)NC(=O)[C@H](CC(=O)O)NC(=O)[C@H](Cc2ccc(OCC(=O)O)cc2)NC1=O [Compound 2893] ({CH2CO}-[Nle]Y(Carboxymethyl)D[Phe(3-Me)][Phe(4-COOH)][Bip][Phe(4-COOH)][Orn][dL][Dab][Cha][Val(3-OH)]DC[Dab][AEEA][AEEA]-{NH(CH2)12COOH}; thioether N-14)
10 | 19.1 | Cc1cccc(C[C@@H]2NC(=O)[C@H](CC(=O)O)NC(=O)[C@H](Cc3ccc(OCC(=O)O)cc3)NC(=O)[C@H]([C@@H](C)O)NC(=O)CSC[C@@H](C(=O)N[C@@H](CCCCN)C(=O)NCCCCCCCCCCC(=O)O)NC(=O)[C@H]([C@@H](C)O)NC(=O)[C@H](C(C)C)NC(=O)[C@H](CC3CCCCC3)NC(=O)[C@H](CCN)NC(=O)[C@@H](CC(C)C)NC(=O)[C@H](CCCN)NC(=O)[C@H](Cc3ccc(OCC(=O)O)cc3)NC(=O)[C@H](Cc3ccc(-c4ccccc4)cc3)NC(=O)[C@H](Cc3ccc(OCC(=O)O)cc3)NC2=O)c1 [Compound 1293] ({CH2CO}-TY(Carboxymethyl)D[Phe(3-Me)]Y(Carboxymethyl)[Bip]Y(Carboxymethyl)[Orn][dL][Dab][Cha]VTCK[Aun]-OH; thioether N-14)
11 | 14.1 | CC(C)C[C@H]1NC(=O)[C@H](CCCN)NC(=O)[C@H](CCC(=O)O)NC(=O)[C@H](Cc2ccc(-c3ccccc3)cc2)NC(=O)[C@H](C(C)C)NC(=O)[C@H](Cc2c[nH]c3ccccc23)NC(=O)[C@H](CC(=O)O)NC(=O)[C@H](Cc2ccc(OCC(=O)O)cc2)NC(=O)[C@H](Cc2ccc(OCC(=O)O)cc2)NC(=O)CSC[C@@H](C(=O)NCCOCCOCC(=O)N[C@@H](CCN)C(=O)NCCCCCCCCCCC(=O)O)NC(=O)[C@H](CCCNC(=N)N)NC(=O)[C@H](C(C)C)NC(=O)[C@H](CC2CCCCC2)NC(=O)[C@H](CCN)NC1=O [Compound 2671] ({CH2CO}-Y(Carboxymethyl)Y(Carboxymethyl)DWV[Bip]E[Orn][dL][Dab][Cha]VRC[AEEA][Dab][Aun]-OH; thioether N-14)
12 | 30.4 | Cc1cccc(C[C@@H]2NC(=O)[C@H](CC(=O)O)NC(=O)[C@H](Cc3ccc(OCC(=O)O)cc3)NC(=O)[C@H](CCCNC(=N)N)NC(=O)CSC[C@@H](C(=O)N[C@@H](CCCCN)C(=O)NCCCCCCCCCCC(=O)O)NC(=O)[C@H](CN)NC(=O)[C@H](C(C)(C)O)NC(=O)[C@H](CC3CCCCC3)NC(=O)[C@H](CCN)NC(=O)[C@@H](CC(C)C)NC(=O)[C@H](CCCN)NC(=O)[C@H](Cc3ccc(OCC(=O)O)cc3)NC(=O)[C@H](Cc3ccc(-c4ccccc4)cc3)NC(=O)[C@H](Cc3ccc(OCC(=O)O)cc3)NC2=O)c1 [Compound 2850] ({CH2CO}-RY(Carboxymethyl)D[Phe(3-Me)]Y(Carboxymethyl)[Bip]Y(Carboxymethyl)[Orn][dL][Dab][Cha][Val(3-OH)][Dap]CK[Aun]-OH; thioether N-14)
